# Like-named read-outs stand apart in the source and are kept apart here.
# Tests used:
# HIV-1 (RF) in MT-2 cells = experiment: microbe, parasite or virus in culture; assay type: cell-based
# In short: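 HIV-1 laboratory strains (RF, MN, IIIB) grown in H9 cells in RPMI 1640 with 5% FCS; infections in MT-2 cells. Viral RNA quantified by hybridization with biotinylated gag/pol capture probes on streptavidin plates and alkaline phosphatase-conjugated reporter probes; BH10 gag-pol in vitro transcripts serve as RNA standards.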
# [1] = target: single-chain tethered dimer of HIV protease (Human immunodeficiency virus 1, UniProt P04585); experiment: biochemical; assay type: biochemical; set-up: fused on or other part: A second copy of the same protease unit is joined to the first by a short peptide tether, giving one polypeptide
# [2] = Table 2d, class symbols, read-out: HPLC K1
# [3] = Table 2d, HIV protease inhibition, HPLC method, read-out: HPLC K1
# [4] = Human immunodeficiency virus 1, MT2, 48 h, Table 2d, class symbols, read-out: IC90
# [5] = read-out: HPLC K1, Table 2d, class symbols
# [6] = HIV RNA assay, HIV-1 infected MT-2 cells, Table 2d
# [7] = HIV protease inhibition, HPLC method, Table 2d, read-out: HPLC K1
# [8] = Human immunodeficiency virus 1, MT2, 48 h, Table 2d, HIV RNA assay, read-out: IC90
# [9] = read-out: HPLC K1, Table 2d, HIV protease inhibition, HPLC method
smiles,measurement,setting,value
CN(C)CC(=O)Nc1cccc(CN2C(=O)N(Cc3cccc(NC(=O)CN(C)C)c3)C(Cc3ccccc3)C(O)C(O)C2Cc2ccccc2)c1.Cl.Cl (stereo not drawn) [15N],IC90,"HIV-1 (RF) in MT-2 cells; Table 2d, class symbols",+++ (+++=<10 μg/mL)
same,Ki,[1]; [2],< 0.01 µM
O=C1N(Cc2cccc(OCC(O)CO)c2)C(Cc2ccccc2)C(O)C(O)C(Cc2ccccc2)N1Cc1cccc(OCC(O)CO)c1 (stereo not drawn) [10T],IC90,"HIV-1 (RF) in MT-2 cells; Table 2d, class symbols",+++ (+++=<10 μg/mL)
same,Ki,[1]; [2],< 0.01 µM
CC(=O)c1cccc(CN2C(=O)N(Cc3cccc(C(=O)CCN(C)C)c3)C(Cc3ccccc3)C(O)C(O)C2Cc2ccccc2)c1 (stereo not drawn) [15AD],IC90,"HIV-1 (RF) in MT-2 cells; Table 2d, HIV RNA assay",+++ (+++=<10 μg/mL)
same,Ki,[1]; [3],< 0.01 µM
O=C1N(CCCCC2CO2)C(Cc2ccccc2)C(O)C(O)C(Cc2ccccc2)N1CCCCC1CO1 (stereo not drawn) [Example 13E],IC90,HIV-1 (RF) in MT-2 cells; [4],< 10 mg/L
same,Ki,[1]; [5],0.01 to 1 µM
O=C1N(Cc2ccc3[nH]nc(Cl)c3c2)C(Cc2ccccc2)C(O)C(O)C(Cc2ccccc2)N1Cc1ccc2[nH]nc(Cl)c2c1 (stereo not drawn) [15DI],IC90,"HIV-1 (RF) in MT-2 cells; Table 2d, HIV RNA assay",+++ (+++=<10 μg/mL)
same,Ki,[1]; [3],< 0.01 µM
Cl.O=C(OCc1ccc(CN2C(=O)N(Cc3ccc(COC(=O)c4ccc(CNCCO)cc4)cc3)[C@H](Cc3ccccc3)[C@H](O)[C@@H](O)[C@H]2Cc2ccccc2)cc1)c1ccc(CNCCO)cc1 [29W],IC90,HIV-1 (RF) in MT-2 cells; Table 2s,+++ (+++=<10 μg/mL)
same,Ki,"[1]; Table 2s, read-out: Ki (HPLC)",0.01 to 1 µM
O=C1N(CCOCCO)C(Cc2ccccc2)C(O)C(O)C(Cc2ccccc2)N1CCOCCO (stereo not drawn) [Example 12U],IC90,HIV-1 (RF) in MT-2 cells; [4],10 to 100 mg/L
same,Ki,[1]; [5],> 1 µM
CCCNC(=O)c1cccc(CN2C(=O)N(Cc3cccc(C(=O)NCCC)c3)C(Cc3ccccc3)C(O)C(O)C2Cc2ccccc2)c1 (stereo not drawn) [15WM],IC90,HIV-1 (RF) in MT-2 cells; [4],< 10 mg/L
same,Ki,[1]; [5],< 0.01 µM
Cl.Cl.O=C(CN1CCOCC1)NCCCCCN1C(=O)N(CCCCCNC(=O)CN2CCOCC2)C(Cc2ccccc2)C(O)C(O)C1Cc1ccccc1 (stereo not drawn) [15FE],IC90,HIV-1 (RF) in MT-2 cells; [6],++/+ (The ++/+ is used in the cases where an IC90 was determined to be >50 μg/mL)
same,Ki,[1]; [7],0.01 to 1 µM
COC(=O)CCCCCN1C(=O)N(CCCCCC(=O)O)C(Cc2ccccc2)C(O)C(O)C1Cc1ccccc1 (stereo not drawn) [Example 12I],IC90,"HIV-1 (RF) in MT-2 cells; Table 2d, class symbols",+ (+=>100 μg/mL)
same,Ki,[1]; [2],< 0.01 µM
C[Si](C)(C)CCOCn1cncc1-c1cccc(CN2C(=O)N(Cc3cccc(-c4cncn4COCC[Si](C)(C)C)c3)C(Cc3ccccc3)C(O)C(O)C2Cc2ccccc2)c1 (stereo not drawn) [Example 15BJ],IC90,HIV-1 (RF) in MT-2 cells; [8],< 10 mg/L
same,Ki,[1]; [9],< 0.01 µM
CCCC(=O)c1cccc(CN2C(=O)N(Cc3cccc(C(=O)CCC)c3)C(Cc3ccc(F)cc3)C(O)C(O)C2Cc2ccc(F)cc2)c1 (stereo not drawn) [20P],IC90,HIV-1 (RF) in MT-2 cells; Table 2i,+++ (+++=<10 μg/mL)
same,Ki,"[1]; Table 2i, read-out: HPLC Ki",< 0.01 µM
O=C1N(Cc2ccccc2)C(Cc2ccccc2)C(O)C(O)C(Cc2ccccc2)N1Cc1ccc2[nH]nnc2c1 (stereo not drawn) [15DN],IC90,"HIV-1 (RF) in MT-2 cells; Table 2d, HIV RNA assay",+++ (+++=<10 μg/mL)
same,Ki,[1]; [3],< 0.01 µM
O=C(NCCCCCN1C(=O)N(CCCCCNC(=O)c2cc(F)cc(F)c2)C(Cc2ccccc2)C(O)C(O)C1Cc1ccccc1)c1cc(F)cc(F)c1 (stereo not drawn) [15FG],IC90,HIV-1 (RF) in MT-2 cells; [6],++/+ (The ++/+ is used in the cases where an IC90 was determined to be >50 μg/mL)
same,Ki,[1]; [7],0.01 to 1 µM
O=Cc1cc(CN2C(=O)N(Cc3ccc(O)cc3)C(Cc3ccccc3)C(O)C(O)C2Cc2ccccc2)ccc1O (stereo not drawn) [Example 11E],IC90,HIV-1 (RF) in MT-2 cells; [4],< 10 mg/L
same,Ki,[1]; [5],< 0.01 µM
NS(=O)(=O)c1cccc(CN2C(=O)N(Cc3cccc(S(N)(=O)=O)c3)C(Cc3ccccc3)C(O)C(O)C2Cc2ccccc2)c1 (stereo not drawn) [15XQ],IC90,HIV-1 (RF) in MT-2 cells; [8],< 10 mg/L
same,Ki,[1]; [9],< 0.01 µM
CCCCC(O)CN1C(=O)NC(Cc2ccccc2)C(O)C(O)C1Cc1ccccc1 (stereo not drawn) [Example 15VM],IC90,HIV-1 (RF) in MT-2 cells; [4],> 50 mg/L
same,Ki,[1]; [5],> 1 µM
CNC(=O)OCCCCCCN1C(=O)N(CCCCCCOC(=O)NC)C(Cc2ccccc2)C(O)C(O)C1Cc1ccccc1 (stereo not drawn) [Example 12W],IC90,HIV-1 (RF) in MT-2 cells; [4],10 to 100 mg/L
same,Ki,[1]; [5],0.01 to 1 µM
Nc1ccc(CC2C(O)C(O)C(Cc3ccc(N)cc3)N(CC3CC3)C(=O)N2CC2CC2)cc1 (stereo not drawn) [Example 20F],IC90,"HIV-1 (RF) in MT-2 cells; Human immunodeficiency virus 1, MT2, Table 2i, read-out: IC90",< 10 mg/L
same,Ki,"[1]; read-out: HPLC Ki, Table 2i",0.01 to 1 µM
N#CCCCCN1C(=O)N(CCCCC#N)C(Cc2ccccc2)C(O)C(O)C1Cc1ccccc1 (stereo not drawn) [15FD],IC90,"HIV-1 (RF) in MT-2 cells; Human immunodeficiency virus 1, MT2, 48 h, HIV RNA assay, HIV-1 infected MT-2 cells, Table 2d, read-out: IC90",10 to 100 mg/L
same,Ki,"[1]; read-out: HPLC K1, HIV protease inhibition, HPLC method, Table 2d",0.01 to 1 µM
O=C1N(Cc2cccc([N+](=O)[O-])c2)C(Cc2ccccc2)C(O)C(O)C(Cc2ccccc2)N1CC1CC1 (stereo not drawn) [15H],IC90,HIV-1 (RF) in MT-2 cells; [4],< 10 mg/L
same,Ki,[1]; [5],< 0.01 µM
NCc1ccc(CN2C(=O)N(Cc3ccc(CO)cc3)C(Cc3ccccc3)C(O)C(O)C2Cc2ccccc2)cc1 (stereo not drawn) [Example 15YH],IC90,"HIV-1 (RF) in MT-2 cells; Table 2d, HIV RNA assay",++ (++=10 to 100 μg/mL)
same,Ki,[1]; [3],0.01 to 1 µM
O=C1CCC(CN2C(=O)NC(Cc3ccccc3)C(O)C(O)C2Cc2ccccc2)CC1 (stereo not drawn) [Example 15VA],IC90,HIV-1 (RF) in MT-2 cells; [4],> 50 mg/L
same,Ki,[1]; [5],0.01 to 1 µM
O=C1N(CCCCCCCCO)C(Cc2ccccc2)C(O)C(O)C(Cc2ccccc2)N1CCCCCCCCO (stereo not drawn) [Example 12K],IC90,HIV-1 (RF) in MT-2 cells; [4],< 10 mg/L
same,Ki,[1]; [5],0.01 to 1 µM

# Source: patent USRE37781E1, “Substituted cyclic carbonyls and derivatives thereof useful as retroviral protease inhibitors” (DuPont Pharmaceuticals Company, priority 1991, dated 2002)
